Assay results taken from patent US11116776B2, “Intravitreal drug delivery systems for the treatment of ocular conditions” (Aerie Pharmaceuticals, Inc., priority 2015, dated 2021).

Experiments:
[1] = monkey (Chang-Lin 2011); cited from earlier work
[2] = ENVRES-PRE-002 ocular pharmacokinetics after intravitreal injection; type: in vivo, New Zealand White rabbits; settings: rabbit; for Cmax: male, New Zealand White, topical or ocular
Procedure: New Zealand White rabbits, 2 males/group/terminal time point, were administered a single bilateral intravitreal injection of either ENV1105 or OZURDEX and were followed for up 1, 2, 3, and/or 5 months. Animals were examined via slit lamp ophthalmoscopy and indirect ophthalmoscopy.
Ocular tissues, including aqueous humor, vitreous humor, and retina, were processed and analyzed for dexamethasone or FA by two of three methods. Dexamethasone present in ocular tissue samples was quantified by ELISA and HPLC. FA present in ocular tissues was quantified by HPLC and mass spectrometry. Prior to analysis, implants or particles were separated from vitreous humor samples via manual removal or centrifugation. Vitreous humor and aqueous humor tissue samples were analyzed as received or diluted with ACN for LC MS/MS or PBS for ELISA.
Animals were followed for up to 3 months, with ocular matrices (retina/choroid, vitreous humor and aqueous humor) collected to determine ocular pharmacokinetics at Months 2 and 3. Ocular exams were conducted on Days 2, 3, 6, 10, weekly through Day 28, and then biweekly through Month 3 to determine tolerability. A summary of the study designed is provided below in Table 10.

[3] = tested on: VEGF-induced vascular leakage; settings: rabbit model (Edelman 2005); cited from earlier work

Compound: C[C@@H]1C[C@H]2[C@@H]3CCC4=CC(=O)C=C[C@]4(C)[C@@]3(F)[C@@H](O)C[C@]2(C)[C@@]1(O)C(=O)CO [Dexamethasone, (8S,9R,10S,11S,13S,14S,16R,17R)-9-Fluoro-11,17-dihydroxy-17-(2-hydroxyacetyl)-10,13,16-trimethyl-6,7,8,9,10,11,12,13,14,15,16,17-dodecahydro-3H-cyclopenta[a]phenanthren-3-one]
- time dexamethasone was detected in the retina and vitreous humor [1]: 6 months
- Cmax ([2]; 0.27 mg, aqueous humor, Group 4 (ENV-1R-0119-7-5, 6 implants, 270 μg/eye)): 5.9 ng/mL
- Cmax ([2]; 0.27 mg, retina/choroid, Group 4 (ENV-1R-0119-7-5, 6 implants, 270 μg/eye)): 28100 ng/g
- Cmax ([2]; 0.27 mg, vitreous humor, Group 4 (ENV-1R-0119-7-5, 6 implants, 270 μg/eye)): 3080 ng/mL
- efficacy in VEGF-induced vascular leakage [3]: effective

Compound: CC1(C)O[C@@H]2C[C@H]3[C@@H]4C[C@H](F)C5=CC(=O)C=C[C@]5(C)[C@@]4(F)[C@@H](O)C[C@]3(C)[C@]2(C(=O)CO)O1 [fluocinolone acetonide, (1S,2S,4R,8S,9S,11S,12R,13S,19S)-12,19-difluoro-11-hydroxy-8-(2-hydroxyacetyl)-6,6,9,13-tetramethyl-5,7-dioxapentacyclo[10.8.0.0^2,9.0^4.8.0 ^13,18]icosa-14,17-dien-16-one]
- day on which concentration peaked ([2]; Group 5 (ENV-1R-0119-33-7), retina/choroid and vitreous humor): 84 days
- Cmax ([2]; 0.0407 mg, retina/choroid, Group 5 (ENV-1R-0119-33-7, 40.7 μg/eye)): 3950 ng/g
- Cmax ([2]; 0.0407 mg, vitreous humor, Group 5 (ENV-1R-0119-33-7, 40.7 μg/eye)): 298 ng/g
